Results from article PMC7287080, “Distinct pre-initiation steps in human mitochondrial translation” (Nature Communications, 2020).

Target: T1, mtIF2 (in mtPIC-2, mtSSU-mtIF2-mtIF3) (Homo sapiens, UniProt P46199)
T1 construct: mature mtIF2 residues 38-727, codon-optimized, pET-24b, E. coli Rosetta 2, Ni resin (His-tag implied) and gel filtration; with Translation initiation factor IF-3, mitochondrial
Assay: cryo-EM structure
Type: binding
Conditions: GTPase G-domain site, preactive state; mtIF2 (1 uM) preincubated with 2.5 mM GDPNP; mtSSU-mtIF3 bound; 25 mM HEPES-KOH pH 7.5, 5 mM Mg(OAc)2, 100 mM KCl; 3.1 A map

Nc1nc2c(ncn2[C@@H]2O[C@H](COP(=O)(O)OP(=O)(O)NP(=O)(O)O)[C@@H](O)[C@H]2O)c(=O)[nH]1 [GDPNP]
cryo-EM structure: The G-domain-bound GDPNP is found in close proximity to the mtIF2-domain III
